From patent EP0583821A1, “Atriopeptins, guanylate cyclase activators, and phosphodiesterase inhibitors as treatment for glaucoma, hydrocephalus and cerebral edema (cranial fluid volume dysfunction)” (THE GENERAL HOSPITAL CORPORATION, priority 1987, dated 1988)

Key:
guanylate cyclase [1] = experiment: Guanylate cyclase in membrane fractions of cerebral cortex; assay type: biochemical; settings: rabbit or pig cerebral cortex membrane fractions
Protocol: (§1) The effect of rANP on membrane-bound guanylate cyclase and adenylate cyclase activity in various brain-barrier tissues and tissue fractions from rabbit was compared with its activity in cerebrum and cerebellum. Guanylate cyclase was measured as the rate of cyclic GMP formation by modifications of the technique of Waldman et al., supra, incorporated herein by reference. Briefly, tissues were homogenized (10 mg wet weight per milliliter) in 50 mM tris-HCl, pH 8.0, 1 mM EDTA, 1 mM dithiothreitol, and 250 mM sucrose and centrifuged at 100,000g to obtain a P1 pellet. Reaction tubes contained (in 0.3 ml), 50 mM tris, pH 7.6, 6 mM MnCl₂, 0.5 mM 3-isobutyl, 1-methylxanthine (IBMX), 10 mM theophylline, 3 mM GTP, hormone (in 0.03 ml containing 2.5 mM ascorbic acid and 0.1% bovine serum albumin), and 0.06 ml of P1 fraction (40 to 60 ug of protein). The reaction (4 minutes at 30°C) was started by addition of GTP and terminated by addition of 0.3 ml of 150 mM sodium acetate (pH 4.0) and boiling for 3 minutes. Cyclic GMP formed was subsequently measured by radioimmunoassay as described in example 6, infra. Under these conditions, guanylate cyclase activity was linear with time and tissue concentration. Adenylate cyclase activity in P1 fractions was measured according to the method described by Nathanson, et al., Science; 204:843 (1979); Mol. Pharmacol. 18:199 (1980), see Figure 1C . […] Neurosci. […]

adenylate cyclase = experiment: Adenylate cyclase activity in P1 fractions of whole choroid; assay type: biochemical, rabbit; settings: rANP at high concentrations
Protocol: as §1

rabbits = experiment: CSF production by ventricular-cisternal perfusion after intraventricular drug; assay type: in vivo, rabbit
Protocol: Drug was given intraventricularly, either by bolus injection or by continuous addition (during a 10-minute period) to the CSF perfusion system. Ventricular-cisternal perfusion of Blue dextran was carried out by a closed system with active pumping both into and out of the catheters at a rate of […]. Output dye concentration was monitored continuously with an in-line photocell; and a separate, contralateral venticular catheter independently measured intracranial pressure. […] Drug was administered in an artificial CSF containing 0.01% rabbit serum albumin (RSA) and 0.25 mM ascorbate. […] In one animal, there was no change in CSF secretion rate, and in no case was there an increase in CSF production. […] During a period of 100 minutes, secretion rate dropped by 70%.

guanylate cyclase [2] = target: T1, guanylate cyclase (Oryctolagus cuniculus, UniProt G1TXB5); experiment: Guanylate cyclase in membrane fractions of cerebellum; assay type: biochemical, rabbit; parameters: tissues were homogenized (10 mg wet weight per milliliter); from tissue; host or cells: rabbit cerebral microvessels, choroid plexus, kidney, ciliary process, pia-arachnoid, cerebellum; 100,000 g P1 pellet
T1 sequence (G1TXB5 28-1056): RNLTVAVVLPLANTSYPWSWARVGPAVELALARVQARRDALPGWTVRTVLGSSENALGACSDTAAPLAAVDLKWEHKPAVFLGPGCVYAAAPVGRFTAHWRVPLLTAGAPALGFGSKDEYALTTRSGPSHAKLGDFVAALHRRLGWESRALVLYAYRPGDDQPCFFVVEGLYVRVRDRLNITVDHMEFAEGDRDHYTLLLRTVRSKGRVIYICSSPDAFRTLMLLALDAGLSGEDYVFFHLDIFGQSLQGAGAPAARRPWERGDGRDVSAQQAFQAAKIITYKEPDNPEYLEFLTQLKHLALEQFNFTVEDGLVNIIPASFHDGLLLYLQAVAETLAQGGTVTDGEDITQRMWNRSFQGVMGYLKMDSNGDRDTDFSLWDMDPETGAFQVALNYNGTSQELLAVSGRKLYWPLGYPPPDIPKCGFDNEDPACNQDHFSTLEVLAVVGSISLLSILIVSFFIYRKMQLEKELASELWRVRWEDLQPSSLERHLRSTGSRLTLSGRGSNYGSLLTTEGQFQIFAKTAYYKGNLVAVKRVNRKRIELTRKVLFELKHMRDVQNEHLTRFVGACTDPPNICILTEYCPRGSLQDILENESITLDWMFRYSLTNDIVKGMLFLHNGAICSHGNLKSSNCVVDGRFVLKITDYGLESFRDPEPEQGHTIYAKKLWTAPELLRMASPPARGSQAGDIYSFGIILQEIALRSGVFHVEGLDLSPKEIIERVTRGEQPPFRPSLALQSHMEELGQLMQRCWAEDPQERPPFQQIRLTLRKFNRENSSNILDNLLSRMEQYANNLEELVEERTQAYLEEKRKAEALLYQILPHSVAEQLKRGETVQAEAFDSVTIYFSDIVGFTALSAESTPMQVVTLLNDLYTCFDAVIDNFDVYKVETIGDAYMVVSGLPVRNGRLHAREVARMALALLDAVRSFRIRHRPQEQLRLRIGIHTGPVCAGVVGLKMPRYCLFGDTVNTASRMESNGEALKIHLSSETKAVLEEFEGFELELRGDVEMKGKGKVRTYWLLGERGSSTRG
Protocol: as §1

Ser-Leu-Arg-Arg-atriopeptin III (APIII) [rANP 1-28]
stimulation of guanylate cyclase activity (guanylate cyclase [1]): no stimulation | effect on adenylate cyclase activity (adenylate cyclase): small inhibition | mean decrease in rate of CSF production (rabbits; 13 positive responses, SEM, 30 pmol bolus or 3 to 30 pmol/min for 10 minutes intraventricular): 35.3% ± 6.9% | drop of CSF secretion rate (rabbits; bolus injection of 30 pmol into the lateral ventricle, during 100 minutes, Fig. 3): 70% | positive responses (decrease in CSF production) (rabbits; intraventricular bolus or infusion): 13 of 14 | stimulation of guanylate cyclase (guanylate cyclase [2]): moderate amount of stimulation
